What was measured:
[1] = tested on: T1, PAL from Spirulina platensis (S. platensis PAL); test: forward deamination assay, cinnamic acid absorbance at […] nm; format: biochemical, Limnospira platensis; conditions: Tris-HCl pH 8.9; standard assay at 37 °C
T1 construct: native enzyme purified from algal culture (acetone precipitation, Sephadex G-200, DEAE-cellulose); 64 kDa band on SDS-PAGE

[2] = tested on: T2, PAL from Anabaena flos-aquae (A. flos-aquae PAL); test: as above; format: biochemical, Dolichospermum flosaquae; conditions: Tris-HCl pH 8.9; standard assay at 37 °C
T2 construct: native enzyme purified from algal culture (acetone precipitation, Sephadex G-200, DEAE-cellulose); 64 kDa band on SDS-PAGE

[3] = tested on: T1, PAL from Spirulina platensis (S. platensis PAL); test: reverse hydroamination assay, L-phenylalanine formation at […] nm; format: biochemical, Limnospira platensis; conditions: co-substrate NH4OH (stock 5 M); Tris-HCl pH 8.9 (standard assay); 37 °C
[4] = tested on: T2, PAL from Anabaena flos-aquae (A. flos-aquae PAL); test: as above; format: biochemical, Dolichospermum flosaquae; conditions: co-substrate NH4OH (stock 5 M); Tris-HCl pH 8.9; standard assay at 37 °C

Compound | Km [1] | Km [2] | Km [3] | Km [4]
N[C@@H](Cc1ccccc1)C(=O)O [L-phenylalanine] | 1640 µM | 1500 µM |  | 
O=C(O)/C=C/c1ccccc1 [trans-cinnamic acid] |  |  | 610 µM | 300 µM

Source: article PMC9728195, “Purification and Characterization of Anabaena flos-aquae Phenylalanine Ammonia-Lyase as a Novel Approach for Myristicin Biotransformation” (Journal of Microbiology and Biotechnology, 2019)
